{"source": "patent US20190133980A1", "about": "“Compositions and methods for targeting and treating homologous recombination-deficient tumors” (YALE UNIVERSITY, priority 2016, published 2019)", "key": {"[1]": {"test_system": "wild-type and IDH1-R132H heterozygous HCT116 cells", "assay": "Short-term growth delay assay, HCT116", "assay_type": "cell-based, Human", "protocol": "(§1) Cells were plated in 96-well black-walled plates (Costar) at a concentration of 2.5 k/well and allowed to adhere at room temperature for 60 minutes prior to return to the incubator. For growth delay assays containing octyl-(R)-2HG, cells were cultured with indicated concentration for 10 days prior to plating. 24 hours later, the media was changed and indicated drugs dissolved in either DMSO or DMF (cisplatin only) were added in quadruplicate at varying concentrations. For synergy experiments, cells were replica-plated and drugs added in single wells at the indicated concentrations. At 96 hours after the addition of drugs, cells were washed in PBS, fixed in 70% ethanol, and stained with Hochst at 1 μg/mL. The plates were then imaged on a Cytation 3 automated imager (BioTek), and cells were counted using CellProfiler (cellprofiler.org/). Each experiment was performed three times and values from a representative experiment are reported as mean±SEM. For synergy experiments, experiments were analyzed for synergistic interactions using Combenefit (www.cruk.cam.ac.uk/research-groups/jodrell-group/combenefit)."}, "[2]": {"test_system": "homologous recombination (HR) in U2OS DR-GFP cells", "assay": "U2OS DR-GFP chromosomal HR reporter assay", "assay_type": "cell-based", "conditions": "for suppression of HR: after 10 days of culture in 300 μM octyl-(R)-2-hydroxyglutarate vs DMSO", "protocol": "These reporter assays are carried out as previously described ([…] et al., Molecular cancer research: MCR 13, 1389-1397 (2015)). Briefly, after 10 days of culture in (2R)-Octyl-alpha-hydroxyglutarate (Cayman), 1×10^6 cells were transfected in triplicate with 4 μg pI-SceI using the Amaxa Nucleofector II and Nucleofection Kit V (Lonza) per manufacturer's protocol. 72 h after transfection, cells were analyzed for GFP expression using flow cytometry, and the data was analyzed using FlowJo software to calculate %GFP positive cells. Values reported are mean±SEM."}, "[3]": {"test_system": "wild-type or IDH1-R132H heterozygous astrocytes", "assay": "Long-term colony forming (clonogenic survival) assay, astrocytes", "assay_type": "cell-based, Human", "conditions": "FIG. 2B", "protocol": "(§2) Cells were counted and diluted in media containing various concentration of drug. They were then immediately seeded in 6-well plates in triplicate at 3-fold dilutions, ranging from 9000 to 37 cells per well. These plates were kept in the incubator for 10 to 14 days, following which they were washed in PBS, stained with Crystal Violet, and quantified. Each experiment was performed twice, and values reported are mean ±standard deviation."}, "[4]": {"test_system": "HCT116 IDH1-WT and -mutant tumors", "assay": "In vivo BMN 673 efficacy study, subcutaneous flank xenografts", "set-up": "species or system nude mice", "conditions": "BMN-673 0.33 mg/kg oral gavage once daily for 21 days vs vehicle", "protocol": "All animal experiments were performed in compliance with our institution's IACUC committee. Four week-old female athymic nu/nu mice were used for all in vivo xenograft studies. Mice were quarantined for at least 1 week before experimental manipulation. Human HCT116 cells (with and without IDH1 mutation) were implanted subcutaneously (3-5×10^6 cells in 0.1 cc PBS) in the right flank of nude mice. When tumors reached an average volume of approximately 100 mm^3, mice were randomized into various treatment groups (5-7 mice/group) in each study. Animals were not randomized, but were grouped based on tumor size such that tumors were roughly equivalent in size when treatment was begun. The investigator was not blinded throughout the experiment. Mice were visually observed daily and tumors were measured three times per week by calipers to determine tumor volume using the formula: […]\nBMN 673 was solubilized in DMSO and diluted with PBS containing 10% dimethylacetamide (Sigma-Aldrich) and 6% Solutol (Sigma-Aldrich). […] Tumor tripling time was calculated as the time required for tumors to increase in volume threefold over baseline at the time of treatment initiation. P-values were determined by Mann-Whitney U test (Stata). Kaplan-Meier curves were generated with survival fraction determined by the number of mice alive with tumor volume smaller than three times the initial pre-treatment volume. […]"}, "[5]": {"test_system": "wild-type or IDH1-R132H heterozygous astrocytes", "assay": "Short-term growth delay assay, astrocytes", "assay_type": "cell-based, Human", "conditions": "for sensitization of IDH1-mutant versus WT cells to single DNA damaging agent: FIG. 6A, single agents", "protocol": "as §1, with “For growth delay assays containing octyl-(R)-2HG, cells were cultured with indicated concentration for 10 days prior to plating. 24 hours later, the media was changed and indicated drugs dissolved in either DMSO or DMF (cisplatin only) were added in quadruplicate at varying concentrations.” left out"}, "[6]": {"test_system": "wild-type or IDH1-R132H heterozygous HCT116 cells", "assay": "Long-term colony forming assay, HCT116", "assay_type": "cell-based, Human", "conditions": "FIG. 5E; at 10 nM BMN-673", "protocol": "as §2"}, "[7]": {"test_system": "IDH1-WT U2OS DR-GFP cells", "assay": "Neutral comet assay, U2OS", "assay_type": "cell-based", "conditions": "24 h exposure to DMOG", "protocol": "(§3) Neutral comet assays were performed per manufacturer's protocol (Trevigen). Briefly, cells were trypsinized, washed with PBS and suspended in LM Agarose (Trevigen). Neutral electrophosesis was conducted at 21V for 1 hour in the CometAssay Electrophoresis System (Trevigen). Data were collected with an EVOS FL microscope (Advanced Microscopy Group) and analyzed using AutoComet software (TriTek Corporation). For each experiment, three biological replicates each with >50 cells were measured, and reported values are mean±SEM."}, "[8]": {"test_system": "WT and R132H/+ HCT116 cells", "assay": "Neutral comet assay, HCT116", "assay_type": "cell-based, Human", "protocol": "as §3"}}, "data": [{"molecule": "O=C(O)CCC(O)C(=O)O", "note": "(stereo not drawn) [2-HG, 2-hydroxyglutarate]", "values": [{"measurement": "PARP inhibitor (BMN-673) sensitivity of WT cells after 2-HG treatment", "setting": "[1]; FIGS. 2C-2D, wild-type HCT116, octyl-(R)-2HG with 300 nM BMN-673, or 900 μM octyl-(R)-2HG with BMN-673 dose response", "value": "recapitulate the enhanced PARP inhibitor sensitivity seen in IDH1-mutant cells"}, {"measurement": "ability of treatment alone to reproduce the IDH1-associated HR defect", "setting": "[2]; FIG. 1I, FIGS. 3H-3I, wild-type cells", "value": "recapitulate the IDH1-associated HR defect"}, {"measurement": "suppression of HR", "setting": "[2]; FIG. 1I", "value": "dramatic, and it approached levels seen with siRNAs targeting two key HR genes, RAD51 and BRCA2"}]}, {"molecule": "Cn1ncnc1[C@H]1c2n[nH]c(=O)c3cc(F)cc(c23)N[C@@H]1c1ccc(F)cc1", "note": "[BMN-673]", "values": [{"measurement": "increase in sensitivity of IDH1-R132H versus wild-type astrocytes", "setting": "[3]; at 10 nM BMN-673", "value": "ten-fold increase in sensitivity"}, {"measurement": "decrease in cell survival of IDH1-mutant compared to WT cells", "setting": "[3]; clonogenic survival, dose of 10 nM", "value": 10, "unit": "fold"}, {"measurement": "tumor growth in IDH1-WT tumors", "setting": "[4]; HCT116 IDH1-WT xenografts", "value": "minimal effects"}, {"measurement": "tumor growth in IDH1-mutant tumors", "setting": "[4]; HCT116 IDH1-mutant xenografts", "value": "significant growth delay"}, {"measurement": "difference in IC50 between wild-type and IDH1-R132H heterozygous HCT116", "setting": "[1]; FIG. 5D", "value": "nearly eight-fold difference in IC50"}, {"measurement": "decrease in IC50 in R132H mutants versus wild-type", "setting": "[5]; FIG. 2A, BMN-673 dose response, 96 hours after addition of drug", "value": "four-fold decrease in IC50"}, {"measurement": "difference in cell viability between wild-type and IDH1-R132H heterozygous HCT116", "setting": "[6]", "value": "roughly ten-fold difference in cell viability"}]}, {"molecule": "COC(=O)CNC(=O)C(=O)OC", "note": "[DMOG, dimethyloxalylglycine]", "values": [{"measurement": "baseline DSBs", "setting": "[7]", "value": "dose dependent increase in baseline DSBs"}, {"measurement": "HR activity", "setting": "[2]; 24 h pretreatment with DMOG", "value": "dose dependent HR suppression"}]}, {"molecule": "COS(C)(=O)=O", "note": "[MMS, Methyl methanesulfonate]", "values": [{"measurement": "sensitization of IDH1-mutant versus WT cells to single DNA damaging agent", "setting": "[5]", "value": "modest, but detectable sensitization"}]}, {"molecule": "O=[N+]([O-])c1cc([N+](=O)[O-])c(/C=C/c2ccc(Cl)c(Cl)c2)cc1/C=C/c1ccc(Cl)c(Cl)c1", "note": "[NSC-636819]", "values": [{"measurement": "doses at which the increase in DSBs was observed", "setting": "[8]; HCT116 IDH-WT cells", "value": "12.5 to 50", "unit": "µM"}, {"measurement": "DSBs (comet tail moment) in HCT116 IDH-WT cells", "setting": "[8]; NSC-636819 treatment, HCT116 IDH-WT", "value": "dose-dependent increase in elevated DSBs, which approached the levels seen in untreated HCT116 IDH-mutant cells"}, {"measurement": "comet tail moments in HCT116 IDH-mutant cells", "setting": "[8]; NSC-636819 treatment, HCT116 IDH-mutant", "value": "did not further increase comet tail moments"}]}, {"molecule": "N.N.[Cl][Pt][Cl]", "note": "[cisplatin]", "values": [{"measurement": "synergy between BMN-673 and cisplatin", "setting": "[5]; FIG. 2F, 8 nM BMN-673 and 1 cisplatin, IDH1 wild-type vs IDH1-R132H astrocytes", "value": "IDH1-R132H-dependent synergy"}, {"measurement": "sensitization of IDH1-mutant versus WT cells to single DNA damaging agent", "setting": "[5]", "value": "modest, but detectable sensitization"}, {"measurement": "synergistic interaction with BMN-673 in IDH1-mutant tumor cells", "setting": "[5]; FIGS. 2E-F, 6B (cisplatin, astrocytes), FIG. 6C (TMZ, IDH1-R132H HCT116), Combenefit analysis", "value": "dramatic synergistic interaction"}]}, {"molecule": "CCc1c2c(nc3ccc(OC(=O)N4CCC(N5CCCCC5)CC4)cc13)-c1cc3c(c(=O)n1C2)COC(=O)[C@]3(O)CC", "note": "[irinotecan]", "values": [{"measurement": "sensitization of IDH1-mutant versus WT cells to single DNA damaging agent", "setting": "[5]", "value": "modest, but detectable sensitization"}]}, {"molecule": "(2R)-octyl-α-hydroxyglutarate [octyl-(R)-2-hydroxyglutarate]", "values": [{"measurement": "suppression of HR", "setting": "[2]; FIG. 1I", "value": "comparable in magnitude to RAD51 or BRCA2 suppression by siRNA knockdown"}]}]}
